Test system: yeast genes (expressed mRNA)
Assay: DNA chip measurement of expressed mRNA of yeast genes after culture with a toxic chemical substance
Assay type: cell-based, Saccharomyces cerevisiae S288C
Conditions: for level of expressed mRNA in the presence of chemical substance / level in the absence of chemical substance: cultured two hours with the chemical substance; for The level of expressed mRNA in the presence of chemical substance/The level of expressed mRNA in the absence of chemical substance: cultured two hours with substance
Procedure, shortened: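 Expression is given as treated/untreated fluorescence ratio on a whole-genome yeast DNA chip, a ratio of two or more being significant. Log-phase S288C cultures in YPD at 25 °C received the chemical for 2 h at a dose that slows growth without killing. mRNA was reverse-transcribed with Cy3- or Cy5-dUTP.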

In the case of `CCCCCCCCCCCCc1ccc(S(=O)(=O)[O-])cc1.[Na+]` [(17), Sodium dodecylbenzosulfonate], the “level of expressed mRNA in the presence of chemical substance / level in the absence of chemical substance” value (yeast gene YNL058C) is reported as 0.8, the “level of expressed mRNA in the presence of chemical substance / level in the absence of chemical substance” value (yeast gene YNL063W) is reported as 0.9 and the “The level of expressed mRNA in the presence of chemical substance/The level of expressed mRNA in the absence of chemical substance” value (yeast gene YNL074C) is reported as 1.1. The “The level of expressed mRNA in the presence of chemical substance/The level of expressed mRNA in the absence of chemical substance” value (yeast gene YNL092W) was 1.7, the “The level of expressed mRNA in the presence of chemical substance/The level of expressed mRNA in the absence of chemical substance” value (yeast gene YNL115C) was 1.6 and the “The level of expressed mRNA in the presence of chemical substance/The level of expressed mRNA in the absence of chemical substance” value (yeast gene YNL156C) was 1.8. For the same compound, the “level of expressed mRNA in the presence of chemical substance / level in the absence of chemical substance” value (yeast gene YNL176C) was 0.6, the “level of expressed mRNA in the presence of chemical substance / level in the absence of chemical substance” value (yeast gene YNL194C) was 0.8 and the “level of expressed mRNA in the presence of chemical substance / level in the absence of chemical substance” value (yeast gene YNL200C) was 1.2. For the same compound, the “The level of expressed mRNA in the presence of chemical substance/The level of expressed mRNA in the absence of chemical substance” value (yeast gene YNL234W) was 1.0, the “level of expressed mRNA in the presence of chemical substance / level in the absence of chemical substance” value (yeast gene YNL253W) was 1.1 and the “level of expressed mRNA in the presence of chemical substance / level in the absence of chemical substance” value (yeast gene YNL276C) was 1.1. The “The level of expressed mRNA in the presence of chemical substance/The level of expressed mRNA in the absence of chemical substance” value (yeast gene YNL281W) was 0.9, the “The level of expressed mRNA in the presence of chemical substance/The level of expressed mRNA in the absence of chemical substance” value (yeast gene YNL305C) was 1.7 and the “level of expressed mRNA in the presence of chemical substance / level in the absence of chemical substance” value (yeast gene YNR051C) was 0.7. The “The level of expressed mRNA in the presence of chemical substance/The level of expressed mRNA in the absence of chemical substance” value (yeast gene YNR068C) was 1.0, the “level of expressed mRNA in the presence of chemical substance / level in the absence of chemical substance” value (yeast gene YOL026C) was 2.1 and the “The level of expressed mRNA in the presence of chemical substance/The level of expressed mRNA in the absence of chemical substance” value (yeast gene YOL032W) was 1.7. The “The level of expressed mRNA in the presence of chemical substance/The level of expressed mRNA in the absence of chemical substance” value (yeast gene YOL036W) was 1.1, the “The level of expressed mRNA in the presence of chemical substance/The level of expressed mRNA in the absence of chemical substance” value (yeast gene YOL047C) was 1.5 and the “The level of expressed mRNA in the presence of chemical substance/The level of expressed mRNA in the absence of chemical substance” value (yeast gene YOL071W) was 1.3. The “The level of expressed mRNA in the presence of chemical substance/The level of expressed mRNA in the absence of chemical substance” value (yeast gene YOL082W) was 1.6, the “The level of expressed mRNA in the presence of chemical substance/The level of expressed mRNA in the absence of chemical substance” value (yeast gene YOL083W) was 1.4 and the “The level of expressed mRNA in the presence of chemical substance/The level of expressed mRNA in the absence of chemical substance” value (yeast gene YOL117W) was 1.3. The “The level of expressed mRNA in the presence of chemical substance/The level of expressed mRNA in the absence of chemical substance” value (yeast gene YOL131W) was 1.1, the “The level of expressed mRNA in the presence of chemical substance/The level of expressed mRNA in the absence of chemical substance” value (yeast gene YOL150C) was 2.7 and the “The level of expressed mRNA in the presence of chemical substance/The level of expressed mRNA in the absence of chemical substance” value (yeast gene YOL162W) was 1.2. For the same compound, the “The level of expressed mRNA in the presence of chemical substance/The level of expressed mRNA in the absence of chemical substance” value (yeast gene YOR019W) was 1.7, the “level of expressed mRNA in the presence of chemical substance / level in the absence of chemical substance” value (yeast gene YOR022C) was 1.1 and the “level of expressed mRNA in the presence of chemical substance / level in the absence of chemical substance” value (yeast gene YOR087W) was 0.8. For the same compound, the “level of expressed mRNA in the presence of chemical substance / level in the absence of chemical substance” value (yeast gene YOR138C) was 1.1, the “The level of expressed mRNA in the presence of chemical substance/The level of expressed mRNA in the absence of chemical substance” value (yeast gene YOR197W) was 1.5 and the “level of expressed mRNA in the presence of chemical substance / level in the absence of chemical substance” value (yeast gene YOR253W) was 0.9. For the same compound, the “level of expressed mRNA in the presence of chemical substance / level in the absence of chemical substance” value (yeast gene YOR267C) was 1.3, the “level of expressed mRNA in the presence of chemical substance / level in the absence of chemical substance” value (yeast gene YOR325W) was 0.8 and the “level of expressed mRNA in the presence of chemical substance / level in the absence of chemical substance” value (yeast gene YPL005W) was 1.2. For the same compound, the “The level of expressed mRNA in the presence of chemical substance/The level of expressed mRNA in the absence of chemical substance” value (yeast gene YPL087W) was 2.1, the “level of expressed mRNA in the presence of chemical substance / level in the absence of chemical substance” value (yeast gene YPL150W) was 1.4 and the “level of expressed mRNA in the presence of chemical substance / level in the absence of chemical substance” value (yeast gene YPL152W) was 1.2. The “level of expressed mRNA in the presence of chemical substance / level in the absence of chemical substance” value (yeast gene YPL168W) was 1.1, the “level of expressed mRNA in the presence of chemical substance / level in the absence of chemical substance” value (yeast gene YPL180W) was 1.0 and the “level of expressed mRNA in the presence of chemical substance / level in the absence of chemical substance” value (yeast gene YPL188W) was 0.7. The “The level of expressed mRNA in the presence of chemical substance/The level of expressed mRNA in the absence of chemical substance” value (yeast gene YPL196W) was 1.4, the “The level of expressed mRNA in the presence of chemical substance/The level of expressed mRNA in the absence of chemical substance” value (yeast gene YPL206C) was 1.4 and the “level of expressed mRNA in the presence of chemical substance / level in the absence of chemical substance” value (yeast gene YPL221W) was 1.5. The “The level of expressed mRNA in the presence of chemical substance/The level of expressed mRNA in the absence of chemical substance” value (yeast gene YPL222W) was 1.1, the “level of expressed mRNA in the presence of chemical substance / level in the absence of chemical substance” value (yeast gene YPL225W) was 1.0 and the “The level of expressed mRNA in the presence of chemical substance/The level of expressed mRNA in the absence of chemical substance” value (yeast gene YPR023C) was 1.0. For the same compound, the “level of expressed mRNA in the presence of chemical substance / level in the absence of chemical substance” value (yeast gene YPR049C) was 1.0, the “level of expressed mRNA in the presence of chemical substance / level in the absence of chemical substance” value (yeast gene YPR146C) was 1.0 and the “level of expressed mRNA in the presence of chemical substance / level in the absence of chemical substance” value (yeast gene YPR148C) was 0.9. For the same compound, the “The level of expressed mRNA in the presence of chemical substance/The level of expressed mRNA in the absence of chemical substance” value (yeast gene YPR151C) was 1.3 and the “level of expressed mRNA in the presence of chemical substance / level in the absence of chemical substance” value (yeast gene YPR172W) was 1.1.
